The test system of the test is LTB4 biosynthesis in human whole blood. The experiment in a line: calcium ionophore-induced LTB4 biosynthesis in human whole blood. It is filed as cell-based. The note with it: at 13 nM; human heparinized whole blood, calcium ionophore A23187 challenge, LTB4 by radioimmunoassay; read-out: Inhibition of leukotriene biosynthesis. On the procedure:
Inhibition of leukotriene biosynthesis was evaluated in an assay, involving calcium ionophore-induced LTB4 biosynthesis expressed human whole blood. Human heparinized whole blood was preincubated with test compounds or vehicle for 15 min at 37° C. followed by calcium ionophore A23 187 challenge (final concentration of 8.3/μM) and the reaction terminated after 30 min by adding two volumes of methanol containing prostaglandin B2 as an internal recovery standard. The methanol extract was analyzed for LTB4 using a commercially available radioimmunoassay.

These results are taken from patent publication US5446055A, “Polyether naphthalenic lignan lactones as inhibitors of 5-lipoxygenase” (Abbott Laboratories, priority 1994, dated 1995).

Molecules are shown by their SMILES.

With `CON=C(c1cccc(COc2ccc3c(-c4ccc(F)cc4)c4c(cc3c2)C(=O)OC4)c1)[C@H]1COC(C)(C)O1` [Example 1, O-methylE- and Z-(4"S)-7-[(3'-((2",2"-dimethyl-1",3"-dioxolan-4"-yl)oximinomethyl)phenyl)oxymethylene]-4-(4-fluorophenyl)naptho[2,3-c]furan-1(3H)-one], the inhibition – broadly, the relative decrease from the control value, in per cent – at 0.013 µM was 52%.
